From ChEMBL document CHEMBL5727197, “Bicyclic urea, thiourea, guanidine and cyanoguanidine compounds useful for the treatment of pain” (2019)

What follows are compounds tested against High affinity nerve growth factor receptor (Homo sapiens, UniProt P04629) (assay: Kinase Binding Assay: TrkA binding activity was determined in a TrkA LanthaScreen™ Eu Kinase Binding Assay. 5 nM His-tagged recombinant human TrkA (6HIS tagged cytoplasmic domain from Invitrogen, Catalog No. PV3144) was incubated with 4 nM Alexa-Fluor® Tracer 236 (Invitrogen Cat. No. PV5592), 2 nM biotinylated anti-His (Invitrogen Cat. No. PV6090), and 2 nM europium-labeled Streptavidin (Invitrogen Cat. No. PV5899), in buffer (25 mM MOPS, pH 7.5, 5 mM MgCl2, 0.005% Triton X-100). Three fold serial dilutions of compounds of the invention in DMSO were added to a final percentage of 2% DMSO. After 60-minute incubation at 22° C., the reaction was measured using the EnVision mutlimode plate reader (PerkinElmer) via TR-FRET dual wavelength detection at […]. The percent of control was calculated using a ratiometric emission factor.).
High affinity nerve growth factor receptor, sequence (P04629 whole entry, the tested form may be a part): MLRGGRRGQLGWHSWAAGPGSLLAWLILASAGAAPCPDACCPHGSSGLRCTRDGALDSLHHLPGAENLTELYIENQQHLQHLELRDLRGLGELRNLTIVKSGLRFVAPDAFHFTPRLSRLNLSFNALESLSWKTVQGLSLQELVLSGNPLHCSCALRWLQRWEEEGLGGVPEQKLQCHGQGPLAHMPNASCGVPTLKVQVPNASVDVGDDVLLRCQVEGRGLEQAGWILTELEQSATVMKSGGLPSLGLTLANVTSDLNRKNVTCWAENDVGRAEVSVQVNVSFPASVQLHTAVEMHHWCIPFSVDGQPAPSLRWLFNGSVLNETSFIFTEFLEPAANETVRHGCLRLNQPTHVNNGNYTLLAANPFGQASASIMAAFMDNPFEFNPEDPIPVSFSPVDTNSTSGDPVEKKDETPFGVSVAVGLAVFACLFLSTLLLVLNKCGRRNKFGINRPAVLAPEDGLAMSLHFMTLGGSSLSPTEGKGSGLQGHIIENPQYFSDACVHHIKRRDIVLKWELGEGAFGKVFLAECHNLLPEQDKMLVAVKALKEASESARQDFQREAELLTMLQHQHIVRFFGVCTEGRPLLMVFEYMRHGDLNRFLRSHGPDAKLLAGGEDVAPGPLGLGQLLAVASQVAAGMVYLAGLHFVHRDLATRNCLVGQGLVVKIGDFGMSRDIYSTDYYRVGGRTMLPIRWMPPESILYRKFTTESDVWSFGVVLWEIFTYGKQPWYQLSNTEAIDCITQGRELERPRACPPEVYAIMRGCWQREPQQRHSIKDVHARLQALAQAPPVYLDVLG

IC50, < 100 nM:
CC(C)(C)OC(=O)N1CCO[C@@H](COc2nn(-c3ccccc3)c(NC(=O)N[C@@H]3c4ccccc4C4(CC4)[C@H]3O)c2Cl)C1
Cc1c(-c2ccc(=O)n(C)c2)nn(-c2ccccc2)c1NC(=O)NC1CN(CC(F)(F)F)Cc2ccccc21 (stereo not drawn)
CC1(C)C[C@@H](O)[C@H](NC(=O)Nc2c3c(nn2-c2ccccc2)COC3)c2ccccc21 (relative stereo)
